From US20090286693A1, “MICROARRAYS OF TAGGED COMBINATORIAL TRIAZINE LIBRARIES” (New York University, NYU Medical Center, Department of …, priority 2001, published 2009)
Read-outs that look alike come from different tables or passages of the source.

Key:
human IgG [1] = tested on: T1, human IgG; assay: Small-molecule microarray screening with Cy3-labeled human IgG; type: binding; details: for microarray hit strength in words: based on spot intensity; for array signal (fluorescence units): spot intensity, background subtracted
T1 construct: array signal (fluorescence units); other: spot intensity, background subtracted; human IgG-Cy3; array signal class; other: symbol in brackets after the fluorescence units; microarray hit strength in words; other: based on spot intensity, human IgG-Cy3; fused on or other part: Cy3 dye coupled through the NHS ester (chemical label, no fusion)
Description: Human IgG was fluorescently labeled with Cy3-NHS to allow for sensitive visualization of small molecule-IgG interactions on the array. […] The resulting scans were typical to that seen in FIG. 1. […] The spot intensities of these molecules are given in Table 1, with the background subtracted accordingly.
Preparation and Analysis of Small-Molecule Arrays. Preparation of Slides Activated with N-Hydroxysuccinimide Esters. 2 Briefly, 25 mm×75 mm slides (Fisher Scientific) were cleaned in piranha solution (sulfuric acid/hydrogen peroxide, 7:3). An amine functionality was incorporated onto the slides by silanization using a solution of 3% (aminopropyl)triethoxysilane in 2% water and 95% ethanol. After 1-2 h of soaking, the slides were washed with ethanol and cured at 150° C. for at least 2 h. Subsequently, the amine slides were incubated in a solution of 180 mM succinic anhydride in DMF for 30 min thereafter were transferred to a boiling water bath for 2 min. The slides were washed again in ethanol and dried under a stream of nitrogen. The carboxylic acid moieties now created on the slide surface were activated with a solution of 100 mM of TBTU (O-(benzotriazol-1-yl)-N,N,N,N-tetramethyluronium tetrafluoroborate), 200 mM DIEA, and 100 mM N-hydroxysuccinimide in DMF, thus generating the NHS-derivatized slides.
Microarray Printing. By individually weighing the solid compounds, triazine stock solutions were prepared to 2.5 mM in DMF, and 40-iL preparations were distributed across seven 384-well plates to give a total of 2688 distinct and pure compounds. Slides were spotted on an ESI SMA arrayer (Ontario, Canada) with the printhead installed with eight ArrayIt Chipmaker 7 Microspotting pins (Telechem, U.S.A.). Printing was performed in duplicate, and the pins were washed and sonicated in ethanol between samples. A repotting blotting process was also performed on plain slides to ensure spot uniformity. An additional solution of 0.2 mM Cy3-NH2 11 reference was spotted at the ends of the grids using a final eighth plate.
After spotting, the slides were allowed to sit for at least 12 h in situ and then were quenched by washing in an 1% ethanolamine (in DMF) bath for 2 h. After rinsing with Journal of Combinatorial Chemistry Discovery of Small-Molecule Ligands of Human IgG E ethanol and drying, the arrayed slides were stored in a desiccator at 4° C. The slides were stable for extended periods and, when required, were simply brought to room temperature.
Protein Screening with Labeled Human IgG. Proteins were tagged with Cy3-NHS by incubating 5 iL of 20 mM Cy3-NHS (Amersham Biosciences, U.K.) with 200 ig of human IgG (Calbiochem, U.S.A.) in a sodium bicarbonate buffer at pH 8. After 1 h of incubation, the labeled protein was separated from the free dye by a NAP-5 Sephadex G-50 column (Amersham Biosciences, U.K.). Before incubation with the labeled protein, the slides were preblocked to remove any nonspecific binding by soaking in 1% BSA in PBS for 1 h. After a brief rinsing with water, the slides were incubated with the labeled IgG.
A 1000-fold dilution of the above protein preparation was used as the incubation solution in a PBS buffer containing 1% BSA with the small-molecule arrays using the cover slip method for 30 min in a humid incubation chamber. Excess IgG was then removed by washing with distilled water. The background was further reduced using repeated washes with PBST.
Slide Scanning and Analysis. Slides were scanned on an ArrayWoRx scanner (Applied Precision, U.S.A.). Excel sheets were prepared to assign various compounds to specific numberings that could be readily tallied with reference numbers generated by the program. The ArrayWoRx software allows generation of reference files in which the spotting arrangement and the program overlay the spots on the results obtained, allowing compounds to be assigned in a rational fashion to every position. […]

human IgG [2] = target: T2, human IgG; assay: SPR (Biacore X) competitive binding with protein A on CM-5 chip immobilized with human IgG, dissociation constants
T2 construct: Kd/M; other: SPR, small molecule premixed with protein A, IgG immobilized; averaged dissociation constant; other: protein A with IgG alone
Procedure: Dissociation constants were determined for each of the compounds selected using SPR on a Biacore X system with BiaEvaluation software. Competitive binding experiments were performed with differentially proportioned mixtures of a small molecule and protein A on a CM-5 chip immobilized with human IgG (see Supporting Information) (Table 1), which also ensures the small molecule binding to the same Scheme 2. General Experimental Scheme a (a) Directed immobilization of triazine libraries to generate a high-density microarray. (B) Incubation with a fluorescently labeled protein. (C) Removal of the unbound protein through washing. (D) Detection with instantaneous deconvolution of positive hits. (E) Assessing efficacy of hits using SPR. An averaged dissociation constant of 1.25×10−9 M was obtained for protein A with IgG alone. Further assessments made by passing 2.5 iM of a small molecule against the IgG surface were also performed to give measurable association levels that correlate with binding affinities (Table 1). Immobilizing the small molecules and applying IgG in the solution phase obtained equivalent binding measurements; however, by employing the competitive binding method described, a single chip surface may be used for screening against multiple potential small-molecule ligands, economizing the process. A φ2 value of <10 was obtained for all Kd measurements, denoting good statistical validity of the results obtained.
Surface Plasmon Resonance (SPR) Determination of Dissociation Constants. Maintenance. SPR measurements were made on a Biacore X system (Biacore AB, Uppsala, Sweden). Various maintenance steps were performed to ensure that the instrument was kept in good working conditions. The integrated flow cell was washed, sanitized, and maintained using standard cleansing reagents on a weekly basis. Calibration checks were performed quarterly to ensure that the signal was of good quality, and the instrument was kept separate from other equipments to prevent interference. When not in use, the system was docked with a spare chip and flushed with water at a low flow rate of 5 iL/min to prevent clogging. The system was primed at least twice before use or for the purpose of initiating a new buffer type. A desorb process was performed every 2 days during periods of active use to remove proteins or other contaminating compounds that may have accumulated within the flow cell.
Procedures. Various approaches were conceived to assess the Kd values of the interactions. One successful method immobilized the small molecule on the CM-5 sensor chips and ran them through varying concentrations of IgG. […] We conceived that it would be easier to immobilize IgG on the surface and apply differing proportioned mixtures of the “hit” small molecule and protein A (Amersham Biosciences, U.K.). […]

[3] = tested on: other fluorescently labeled proteins (unrelated to human IgG); assay: Control microarray screening with unrelated fluorescently labeled proteins; details: same slide screened with other fluorescently labeled proteins; no positive binding
[4] = SPR, small molecule premixed with protein A, IgG immobilized, read-out: Kd/M

Row | Compound | microarray hit strength in words (human IgG [1]) | array signal (fluorescence units) (human IgG [1]) | Kd (human IgG [2]; [4]) | specificity of binding toward human IgG [3] | Kd (human IgG [2]; protein A with IgG alone, read-out: averaged dissociation constant)
1 | NCCOCCOCCNC(=O)c1ccc(CNc2nc(NCC3CCCCC3)nc(NC3CC4CCC3C4)n2)cc1 (stereo not drawn) [AMD03] | strongest hits | 185 fluorescence units | 2.02 µM | highly specific | 
2 | NCCOCCOCCNC(=O)c1ccc(CNc2nc(NCC3CCCCC3)nc(NC3CCC3)n2)cc1 [AMD10] | strongest hits | 179 fluorescence units | 4.35 µM | highly specific | 
3 | COc1ccc(CNc2nc(Nc3ccc(CC(=O)NCCOCCOCCN)cc3)nc(N3CCCCC3)n2)cc1 [APF29] | negative | < 10 fluorescence units | 151 µM |  | 
4 | protein A: staphylococcal protein A (Amersham Biosciences), high molecular weight IgG ligand used as SPR competitor [reference compound] |  |  |  |  | 0.00125 µM
